{"source": "patent US6706663B2", "about": "“Herbicidal 3-heterocyclic substituted benzisothiazole and benzisoxazole compounds” (Wyeth, priority 2000, dated 2004)", "key": {"[1]": {"system": "SAGPY (Sagittaria pygmaea)", "experiment": "Flooded paddy, preemergence weed control", "type": "in vivo, L.", "settings": "rated 3-4 weeks after treatment, 0-9 rating scale", "method_in_brief": "(§1)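 Scoring used a 0-9 visual scale relative to control. Before that, seeds or propagules were planted shallowly in silt loam and flooded to 1.5–3 cm, a depth maintained throughout, with greenhouse care during the test.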"}, "[2]": {"system": "ORYSAT (Rice, Tebonnet)", "experiment": "Flooded paddy, post-transplant rice tolerance", "type": "in vivo, Oryza sativa, (L.) Tebonnet", "settings": "flooded paddy, post-transplant rice, rated 3-4 weeks after treatment, 0-9 rating scale", "method_in_brief": "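Scores (0-9) reflect visual injury relative to untreated plants in flooded silt loam. Each pot held two transplanted ten-day-old seedlings under 1.5 to 3 cm standing water in the greenhouse.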"}, "[3]": {"system": "ABUTH (Abutilon theophrasti)", "experiment": "Preemergence herbicidal evaluation", "type": "in vivo, Medic.", "settings": "preemergence, rated 4-5 weeks after treatment"}, "[4]": {"system": "TRZAWR (Wheat, Winter, cv Riband)", "experiment": "Postemergence herbicidal evaluation", "type": "in vivo, Triticum aestivum", "method_in_brief": "(§2)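 Visual 0–9 injury scores versus control plants, covering stand, vigour, malformation, size, chlorosis and general appearance, taken four to five weeks post-spray and averaged over replicate tests. Plants were sprayed at roughly two weeks old and held on greenhouse benches.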"}, "[5]": {"system": "ECHORC (Echinochloa oryzoides)", "experiment": "Flooded paddy, preemergence weed control", "type": "in vivo, Echinochloa oryzoides (Ard.) Fritsch.", "settings": "rated 3-4 weeks after treatment, 0-9 rating scale", "method_in_brief": "as §1"}, "[6]": {"system": "ECHCG (Echinochloa crus-galli)", "experiment": "Postemergence herbicidal evaluation", "type": "in vivo, (L.) Beau", "method_in_brief": "as §2"}, "[7]": {"system": "IPOHE (Ipomoea hederacea)", "experiment": "Postemergence herbicidal evaluation", "type": "in vivo, (L.) Jacq.", "method_in_brief": "as §2"}, "[8]": {"system": "CHEAL (Chenopodium album)", "experiment": "Preemergence herbicidal evaluation", "type": "in vivo, L.", "settings": "preemergence, rated 4-5 weeks after treatment", "method_in_brief": "(§3)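 Rating 0–9, visual, vs control; 4–5 wk after spraying seeded cups with compound in aq. acetone; conventional greenhouse care.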"}, "[9]": {"system": "CASOB (Cassia obtusifolia)", "experiment": "Preemergence herbicidal evaluation", "type": "in vivo, L.", "settings": "preemergence, rated 4-5 weeks after treatment", "method_in_brief": "as §3"}, "[10]": {"system": "AMBEL (Ambrosia artemisifolia)", "experiment": "Preemergence herbicidal evaluation", "type": "in vivo, L.", "settings": "preemergence, rated 4-5 weeks after treatment", "method_in_brief": "as §3"}, "[11]": {"system": "CHEAL (Chenopodium album)", "experiment": "Postemergence herbicidal evaluation", "type": "in vivo, L.", "method_in_brief": "as §2"}, "[12]": {"system": "CASOB (Cassia obtusifolia)", "experiment": "Postemergence herbicidal evaluation", "type": "in vivo, L.", "method_in_brief": "as §2"}, "[13]": {"system": "AMBEL (Ambrosia artemisifolia)", "experiment": "Postemergence herbicidal evaluation", "type": "in vivo, L.", "method_in_brief": "as §2"}, "[14]": {"system": "ZEAMX (Corn, Field)", "experiment": "Postemergence herbicidal evaluation", "type": "in vivo, Zea mays, L.", "method_in_brief": "as §2"}, "[15]": {"system": "ORYSAT (Rice, Tebonnet)", "experiment": "Preemergence herbicidal evaluation", "type": "in vivo, Oryza sativa, (L.) Tebonnet", "settings": "preemergence, rated 4-5 weeks after treatment"}, "[16]": {"system": "CYPSE (Cyperus serotinus)", "experiment": "Flooded paddy, preemergence weed control", "type": "in vivo, Rottb.", "settings": "rated 3-4 weeks after treatment, 0-9 rating scale", "method_in_brief": "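Seeds or propagules were planted 0.5 cm deep in silt loam and flooded to 1.5–3 cm. Compounds in 50/50 v/v aqueous/acetone were pipetted into the flood water at about 0.0080 to 0.1250 kg/ha. After 3–4 weeks in the greenhouse, effect was rated visually on a 0–9 scale versus untreated control.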"}, "[17]": {"system": "TRZAWR (Wheat, Winter, cv Riband)", "experiment": "Preemergence herbicidal evaluation", "type": "in vivo, Triticum aestivum", "settings": "preemergence, rated 4-5 weeks after treatment", "method_in_brief": "as §3"}, "[18]": {"system": "ABUTH (Abutilon theophrasti)", "experiment": "Postemergence herbicidal evaluation", "type": "in vivo, Medic.", "method_in_brief": "as §2"}, "[19]": {"system": "ORYSAT (Rice, Tebonnet)", "experiment": "Postemergence herbicidal evaluation", "type": "in vivo, Oryza sativa, (L.) Tebonnet", "method_in_brief": "as §2"}}}
{"compound": "Cc1cccnc1-c1nsc2ccc(-n3c(=O)cc(C(F)(F)F)n(C)c3=O)cc12", "note": "[Compound 19, 1-methyl-3-[3-(3-methyl-2-pyridyl)-1,2-benzisothiazol-5-yl]-6-(trifluoromethyl)uracil]", "values": [{"measurement": "herbicidal rating, SAGPY", "setting": "[1]; rate 0.0080 kg/ha", "value": 0.0}, {"measurement": "herbicidal rating, SAGPY", "setting": "[1]; rate 0.0320 kg/ha", "value": 2.5}, {"measurement": "herbicidal rating, SAGPY", "setting": "[1]; rate 0.1250 kg/ha", "value": 7.0}, {"measurement": "herbicidal rating, ORYSAT (rice tolerance)", "setting": "[2]; rate 0.0080 kg/ha", "value": 2.0}, {"measurement": "herbicidal rating, ORYSAT (rice tolerance)", "setting": "[2]; rate 0.0320 kg/ha", "value": 6.5}, {"measurement": "herbicidal rating, ORYSAT (rice tolerance)", "setting": "[2]; rate 0.1250 kg/ha", "value": 8.0}, {"measurement": "ABUTH preemergence herbicidal rating", "setting": "[3]; Rate 0.0620 kg/ha", "value": 7.7}, {"measurement": "ABUTH preemergence herbicidal rating", "setting": "[3]; Rate 0.1250 kg/ha", "value": 9.0}, {"measurement": "ABUTH preemergence herbicidal rating", "setting": "[3]; Rate 0.2500 kg/ha", "value": 9.0}, {"measurement": "Postemergence herbicidal rating, TRZAWR", "setting": "[4]; rate 0.0320 kg/ha", "value": 4.0}, {"measurement": "Postemergence herbicidal rating, TRZAWR", "setting": "[4]; rate 0.0620 kg/ha", "value": 4.3}, {"measurement": "herbicidal rating, ECHORC", "setting": "[5]; rate 0.0080 kg/ha", "value": 2.0}, {"measurement": "herbicidal rating, ECHORC", "setting": "[5]; rate 0.0320 kg/ha", "value": 8.0}, {"measurement": "herbicidal rating, ECHORC", "setting": "[5]; rate 0.1250 kg/ha", "value": 9.0}, {"measurement": "Postemergence herbicidal rating, ECHCG", "setting": "[6]; rate 0.0320 kg/ha", "value": 2.0}, {"measurement": "Postemergence herbicidal rating, ECHCG", "setting": "[6]; rate 0.0620 kg/ha", "value": 3.0}, {"measurement": "Postemergence herbicidal rating, IPOHE", "setting": "[7]; rate 0.0320 kg/ha", "value": 8.0}, {"measurement": "Postemergence herbicidal rating, IPOHE", "setting": "[7]; rate 0.0620 kg/ha", "value": 9.0}, {"measurement": "CHEAL preemergence herbicidal rating", "setting": "[8]; Rate 0.0620 kg/ha", "value": 9.0}, {"measurement": "CHEAL preemergence herbicidal rating", "setting": "[8]; Rate 0.1250 kg/ha", "value": 9.0}, {"measurement": "CHEAL preemergence herbicidal rating", "setting": "[8]; Rate 0.2500 kg/ha", "value": 9.0}, {"measurement": "CASOB preemergence herbicidal rating", "setting": "[9]; Rate 0.0620 kg/ha", "value": 4.7}, {"measurement": "CASOB preemergence herbicidal rating", "setting": "[9]; Rate 0.1250 kg/ha", "value": 5.7}, {"measurement": "CASOB preemergence herbicidal rating", "setting": "[9]; Rate 0.2500 kg/ha", "value": 8.3}, {"measurement": "AMBEL preemergence herbicidal rating", "setting": "[10]; Rate 0.0620 kg/ha", "value": 6.7}, {"measurement": "AMBEL preemergence herbicidal rating", "setting": "[10]; Rate 0.1250 kg/ha", "value": 9.0}, {"measurement": "AMBEL preemergence herbicidal rating", "setting": "[10]; Rate 0.2500 kg/ha", "value": 9.0}, {"measurement": "Postemergence herbicidal rating, CHEAL", "setting": "[11]; rate 0.0320 kg/ha", "value": 8.0}, {"measurement": "Postemergence herbicidal rating, CHEAL", "setting": "[11]; rate 0.0620 kg/ha", "value": 9.0}, {"measurement": "Postemergence herbicidal rating, CASOB", "setting": "[12]; rate 0.0320 kg/ha", "value": 1.5}, {"measurement": "Postemergence herbicidal rating, CASOB", "setting": "[12]; rate 0.0620 kg/ha", "value": 5.0}, {"measurement": "Postemergence herbicidal rating, AMBEL", "setting": "[13]; rate 0.0320 kg/ha", "value": 9.0}, {"measurement": "Postemergence herbicidal rating, AMBEL", "setting": "[13]; rate 0.0620 kg/ha", "value": 9.0}, {"measurement": "Postemergence herbicidal rating, ZEAMX", "setting": "[14]; rate 0.0320 kg/ha", "value": 5.3}, {"measurement": "Postemergence herbicidal rating, ZEAMX", "setting": "[14]; rate 0.0620 kg/ha", "value": 5.3}, {"measurement": "ORYSAT preemergence herbicidal rating", "setting": "[15]; Rate 0.0620 kg/ha", "value": 5.3}, {"measurement": "ORYSAT preemergence herbicidal rating", "setting": "[15]; Rate 0.1250 kg/ha", "value": 7.0}, {"measurement": "ORYSAT preemergence herbicidal rating", "setting": "[15]; Rate 0.2500 kg/ha", "value": 8.0}, {"measurement": "herbicidal rating, CYPSE", "setting": "[16]; rate 0.0080 kg/ha", "value": 0.0}, {"measurement": "herbicidal rating, CYPSE", "setting": "[16]; rate 0.0320 kg/ha", "value": 0.0}, {"measurement": "herbicidal rating, CYPSE", "setting": "[16]; rate 0.1250 kg/ha", "value": 6.5}, {"measurement": "TRZAWR preemergence herbicidal rating", "setting": "[17]; Rate 0.0620 kg/ha", "value": 5.5}, {"measurement": "TRZAWR preemergence herbicidal rating", "setting": "[17]; Rate 0.1250 kg/ha", "value": 8.0}, {"measurement": "TRZAWR preemergence herbicidal rating", "setting": "[17]; Rate 0.2500 kg/ha", "value": 8.5}, {"measurement": "Postemergence herbicidal rating, ABUTH", "setting": "[18]; rate 0.0320 kg/ha", "value": 9.0}, {"measurement": "Postemergence herbicidal rating, ABUTH", "setting": "[18]; rate 0.0620 kg/ha", "value": 9.0}, {"measurement": "Postemergence herbicidal rating, ORYSAT", "setting": "[19]; rate 0.0320 kg/ha", "value": 3.3}, {"measurement": "Postemergence herbicidal rating, ORYSAT", "setting": "[19]; rate 0.0620 kg/ha", "value": 3.5}]}
